Numbering of substitutions follows the chain as printed. Where two headings read alike, the source gives them in different places. Blank lines part the entries; values can stand above or below the molecule they belong to.
How the values were obtained:
A549 = assay: Test Example 1 in vitro cytotoxic activity (CTG), A549; assay type: cell-based; conditions: for IC50: Homo sapiens
Method: (§1) In this experiment, the ATP content was determined using CTG to reflect the survival condition of the tumor cells. […] The killing effect of the toxin molecule was then assayed according to this condition.
(§2) 1) Cell plating: each of A549, SKBR3 and MDA-MB-468 was digested with pancreatin, resuspended in a culture medium and counted, and 6.33×10^5 cells were added to the medium to make a final volume of 38 mL. 180 μL of the culture medium was plated in a 96-well plate (3903) to obtain a cell density of 3 K/well, and the cells were cultured at 37° C. for 24 h.
(§3) 2 mM solution (10-fold dilution of stock solution in DMSO) was prepared in column 1 of the plate 1, then 10-fold gradient dilution in DMSO was performed in columns 2 to 10. The wells in column 11 were filled with DMSO. 95 μL of corresponding culture medium was added to each well of columns 2 to 11 of the plate 2, and 5 μL of solution was pipetted from columns 2 to 11 of the plate 1 and added to the plate 2. After the solution was mixed well, 20 μL of solution was pipetted and added to the plated cells. Each sample was run in duplicate. The cells were continuously cultured for 5 days.
(§4) 3) CTG assay: the plate was taken out and allowed to equilibrate to room temperature. 90 μL of CTG was added to each well and reacted at room temperature for 10 min away from the light. The luminescence value was read using a microplate reader and IC50 was calculated.

SKBR3 = assay: Test Example 1 in vitro cytotoxic activity (CTG), SKBR3; assay type: cell-based; conditions: for IC50: Homo sapiens, SK-BR-3, 120 h
Method: as §1, §2, §3, §4

MDA-MB-468 = assay: Test Example 1 in vitro cytotoxic activity (CTG), MDA-MB-468; assay type: cell-based; conditions: for IC50: Homo sapiens
Method: as §1, §2, §3, §4

[1] = biological target: T1, CD79B protein on the surface of DoHH2 cells (Homo sapiens, UniProt P40259); assay: FACS of purified anti-human CD79B mouse monoclonal antibodies on DoHH2 cells; assay type: binding; conditions: for FACS binding force: antibodies diluted 1:10 from 100 nM, FIGS. 9A, 9B; for FACS binding force compared with SN8: positive control antibody SN8
T1 construct: endogenous in cells; host or cells: DoHH2 (DOHH-2) cells
T1 sequence (P40259 29-229): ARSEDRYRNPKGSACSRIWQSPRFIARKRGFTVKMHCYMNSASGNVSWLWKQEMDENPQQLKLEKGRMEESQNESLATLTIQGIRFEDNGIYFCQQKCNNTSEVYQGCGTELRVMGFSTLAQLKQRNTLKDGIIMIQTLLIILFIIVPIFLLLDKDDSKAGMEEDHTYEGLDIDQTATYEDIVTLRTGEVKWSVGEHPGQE
T1 sequence (P11912 33-226 partner): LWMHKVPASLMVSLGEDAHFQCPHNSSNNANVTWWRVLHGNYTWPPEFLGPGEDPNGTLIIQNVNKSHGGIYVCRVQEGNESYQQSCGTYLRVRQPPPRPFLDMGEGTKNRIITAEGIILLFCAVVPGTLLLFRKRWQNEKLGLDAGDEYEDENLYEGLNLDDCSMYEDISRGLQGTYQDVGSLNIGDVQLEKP
Method: 3) Assay on anti-human CD79B mouse monoclonal antibodies by FACS The cell suspension of DoHH2 cells was centrifuged, resuspended in PBS containing 0.1% BSA, and counted. 100 μL of antibody diluted in a 1:10 ratio from 100 nM was added, and the cells were incubated at room temperature for 1 h and washed three times. Then Anti-Mouse IgG (Fc specific)-FITC secondary antibody was added, and the cells were incubated at room temperature for 30 min away from the light, washed three times, gently resuspended in PBS containing 0.1% BSA, and loaded on the machine for assay. […] The specific data are shown in FIGS. 9A and 9B, in which hIgG1 is a negative control antibody and SN8 is a positive control antibody. SN8 is an antibody (reference sequence source: US20170362318A) used in the antibody-drug conjugate polatuzumab vedotin developed by Roche pharmaceutical. Polatuzumab vedotin has been approved by the FDA for marketing.

human CD79B [2] = biological target: T2, human CD79B (Homo sapiens, UniProt P40259); assay: ELISA of purified anti-human CD79B mouse monoclonal antibodies; assay type: binding; design: the extracellular region (ECD) of human CD79B comprises 159 amino acids (Met1-Asp159); made in house; host or cells: 293F cells; conditions: purified antibodies diluted 1:10 from 100 nM; FIG. 8
T2 sequence (P40259 29-159 limits assumed): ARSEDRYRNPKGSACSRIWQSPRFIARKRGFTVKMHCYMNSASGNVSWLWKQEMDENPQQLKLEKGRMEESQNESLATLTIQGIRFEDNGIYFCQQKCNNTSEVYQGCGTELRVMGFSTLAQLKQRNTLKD
Method: (§5) 2) Assay on anti-human CD79B mouse monoclonal antibodies by ELISA A 96-well plate was coated with 1 μg/mL antigen at 50 μL/well and incubated in a refrigerator at 4° C. overnight. The next day, the coated antigen plate was washed once (washing solution: 1×PBST). After washing, the plate was blocked with 1% BSA blocking solution prepared in 1×PBST at 37° C. for 1 h. After washing the plate 3 times with 1×PBST, 50 μL of antibody diluted in a 1:10 ratio from 100 nM was added, and the plate was incubated in an incubator at 37° C. for 1 h. After washing the plate 3 times with 1×PBST, 100 μL of goat anti-mouse secondary antibody diluted in a 1:5000 ratio was added, and the plate was incubated in an incubator at 37° C. for 0.5 h. After washing the plate, TMB color development solutions A and B were mixed in a 1:1 ratio for color development. 15 min later, the color development reaction was stopped with 1 N hydrochloric acid. […] value was read at 450 nm on a Spectra Max M5 microplate reader.

human CD79B [3] = biological target: T2, human CD79B; assay: ELISA of anti-human CD79B hybridoma positive clones; assay type: binding; design: the extracellular region (ECD) of human CD79B comprises 159 amino acids (Met1-Asp159); made in house; host or cells: 293F cells; conditions: hybridoma cell supernatant, read at 450 nm
Method: as §5, with “3)” for “2) Assay on anti-human CD79B mouse monoclonal antibodies by”, “ELISA screening” for “ELISA”, “the test cell supernatant” for “antibody diluted in a 1:10 ratio from 100 nM”
(§6) 5) Identification of hybridoma positive clones A plurality of specific antibodies against human CD79B antigen were obtained; and 17 strains of hybridomas having strongest binding force to ELISA and FACS in assays were taken for production and purification of antibodies. Specific antibodies against monkey CD79B antigen were also obtained; and 4 strains of hybridomas having strongest binding force to ELISA and FACS in assays were taken for production and purification of antibodies. Assay results of anti-monkey CD79B hybridoma positive clone cells by FACS are shown in Table 4. mIgG was used as negative control in the both assays.

[4] = biological target: T1, CD79B protein on the surface of DoHH2 cells; assay: FACS of anti-human CD79B hybridoma positive clones; assay type: binding
Method: 4) FACS screening The suspension of DoHH2 cells was centrifuged, resuspended in PBS containing 0.1% BSA, and counted. The test serum was added, and the cells were incubated at room temperature for 60 min and washed. Then Anti-Mouse IgG (Fc specific)-FITC secondary antibody was added, and the cells were incubated at room temperature for 30 min away from the light, washed three times, gently resuspended in PBS containing 0.1% BSA, and loaded on the machine for assay.
as §6

Molecule: C=C1C[C@@H]2CC[C@@]34C[C@H]5O[C@H]6[C@@H](O3)[C@H]3O[C@H](CC[C@@H]3O[C@H]6[C@H]5O4)CC(=O)C[C@@H]3[C@@H](OC)[C@@H](C[C@@H](CN)OC)O[C@H]3C[C@H]3O[C@@H](CC[C@@H]1O2)C[C@@H](C)C3=C [D-1]
Maximum inhibition (%) (A549; A549, 5 days, CTG): 81.34% | IC50 (A549; A549, 120 h): 0.515 nM | IC50 (SKBR3): 0.205 nM | Maximum inhibition (%) (SKBR3; SKBR3, 5 days, CTG): 96.87% | killing effect compared with eribulin (SKBR3; three tumor cell lines SKBR3, MDA-MB-468 and A549): good killing effect in three tumor cell lines and is significantly superior to the positive drug eribulin | IC50 (MDA-MB-468; MDA-MB-468, 120 h): 0.183 nM | Maximum inhibition (%) (MDA-MB-468; MDA-MB-468, 5 days, CTG): 88.01%

Molecule: C=C1C[C@@H]2CC[C@@]34C[C@H]5O[C@H]6[C@@H](O3)[C@H]3O[C@H](CC[C@@H]3O[C@H]6[C@H]5O4)CC(=O)C[C@@H]3[C@@H](OC)[C@@H](C[C@H](O)CN)O[C@H]3C[C@H]3O[C@@H](CC[C@@H]1O2)C[C@@H](C)C3=C [Eribulin, reference compound]
IC50 (A549; 120 h, A549, 5 days, CTG, read-out: IC50): 0.661 nM | IC50 (SKBR3; SKBR3, 5 days, CTG, read-out: IC50): 0.715 nM | IC50 (MDA-MB-468; 120 h, MDA-MB-468, 5 days, CTG, read-out: IC50): 0.482 nM

FACS binding force [1]: strongest FACS binding force | FACS binding force compared with SN8 [1]: superior binding force to SN8 | ELISA binding force (human CD79B [2]): strongest ELISA binding force | Results (OD450) (human CD79B [3]): 3.46 | Mean fluorescence value [4]: 9990
B1: mAb016: anti-human CD79B mouse monoclonal antibody, hybridoma clone 83C2D4 (antibody, V domains shown)
VH: QVQLQQSGAELARPGASVKLSCKASGYIFTNYGIIWVKQRTGQGLEWIGDIFPGSGNTYYNENFKGKATLTADKSSSTAYMELRSLTSEDSAVYFCSRGELGDFDYWGQGTTLTVSS
VL: VVLMTQTPLSLPVSLGDQASISCRSSQNIVHSDGTTYLEWYLQKPGQSPKLLIYKVSNRFSGVPDRFSGSGSGTDFTLKISRVEAEDLGIYYCFQGSHVPWTFGGGTKLEIK

FACS binding force [1]: strongest FACS binding force | FACS binding force compared with SN8 [1]: superior binding force to SN8 | ELISA binding force (human CD79B [2]): strongest ELISA binding force | Results (OD450) (human CD79B [3]): 3.80 | Mean fluorescence value [4]: 8132
B2: mAb017: anti-human CD79B mouse monoclonal antibody, clone 86F11F6; VH SEQ ID NO: 5, VL SEQ ID NO: 6 (antibody, listed as Mus musculus, V domains shown)
VH: QVQLQQSGAELARPGASVKLSCKASGYTFTTYGINWVKQRTGQGLEWIGEIYPRSGNIYYNEKFKGKATLTADKSSSTAYMELRSLTSEDSAVYFCARGSDYDGDFAYWGQGTLVTVSA
VL: B1 VL with V1D, N28S, S32H, T35N, I90V, K108Q

From patent US12642862B2, “Anti-CD79B antibody-drug conjugate, and preparation method therefor and pharmaceutical use thereof” (TUOJIE BIOTECH (SHANGHAI) CO., LTD., priority 2020, dated 2026)
